{"source": "patent US12083102B2", "about": "“Method for treating inflammatory disorders” (DIMERIX BIOSCIENCE PTY LTD, priority 2011, dated 2024)", "key": {"monocytes": {"test_system": "monocytes", "conditions": "Yokochi (2001); cited from earlier work"}, "MCP-1": {"test_system": "MCP-1", "conditions": "Yokochi (2001); Yamada (2004); cited from earlier work"}, "[1]": {"test_system": "mouse models of multiple sclerosis, renal ischemia-reperfusion injury, ureter obstruction, diabetic nephropathy; rat model of arthritis", "conditions": "Tesch (2008); cited from earlier work"}, "[2]": {"target": "CCR2-Rluc8 and HA-tagged AT1R (Homo sapiens, UniProt P30556+P41597)", "sequence (P41597 whole entry, one chain of several)": "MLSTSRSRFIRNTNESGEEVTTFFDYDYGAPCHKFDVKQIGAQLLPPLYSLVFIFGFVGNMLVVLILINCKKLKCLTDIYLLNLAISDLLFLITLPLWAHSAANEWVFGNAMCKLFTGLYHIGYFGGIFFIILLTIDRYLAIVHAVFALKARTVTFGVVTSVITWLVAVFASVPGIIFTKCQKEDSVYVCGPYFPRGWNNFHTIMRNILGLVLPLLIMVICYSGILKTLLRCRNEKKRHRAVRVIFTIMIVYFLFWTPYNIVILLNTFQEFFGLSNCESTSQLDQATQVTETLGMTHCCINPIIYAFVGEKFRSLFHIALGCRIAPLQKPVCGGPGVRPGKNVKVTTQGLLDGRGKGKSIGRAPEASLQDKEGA", "conditions": "HEK293FT cells, FIG. 7 bottom; for MCP-1-induced BRET, CCR2-Rluc8, β-arrestin2-Venus and HA-tagged AT1R: 100 nM MCP-1"}, "[3]": {"target": "T1, AT1R-Rluc8 and the untagged CCR2 (Homo sapiens, UniProt P30556+P41597)", "T1 construct": "expressed in transfected cells; host or cells: HEK293FT", "T1 sequence (P41597 whole entry, one chain of several)": "as above", "assay_type": "cell-based", "conditions": "HEK293FT cells, FIG. 5 bottom; for MCP-1-induced BRET, AT1R-Rluc8, β-arrestin2-Venus and untagged CCR2: 100 nM MCP-1", "description": "(§3) Data represent mean±SEM of three independent experiments performed in triplicate.\nHEK293FT cells were transiently transfected with plasmids coding for β-arrestin2-Venus and the indicated receptors: CCR2-Rluc8 (top panel), AT1R-Rluc8 (middle panel) or AT1R-Rluc8 and the untagged CCR2 (bottom panel)."}, "AT1R-Rluc8 [4]": {"target": "T2, AT1R-Rluc8 (Homo sapiens, UniProt P30556)", "T2 construct": "expressed in transfected cells; host or cells: HEK293FT", "T2 sequence (P30556 1-359)": "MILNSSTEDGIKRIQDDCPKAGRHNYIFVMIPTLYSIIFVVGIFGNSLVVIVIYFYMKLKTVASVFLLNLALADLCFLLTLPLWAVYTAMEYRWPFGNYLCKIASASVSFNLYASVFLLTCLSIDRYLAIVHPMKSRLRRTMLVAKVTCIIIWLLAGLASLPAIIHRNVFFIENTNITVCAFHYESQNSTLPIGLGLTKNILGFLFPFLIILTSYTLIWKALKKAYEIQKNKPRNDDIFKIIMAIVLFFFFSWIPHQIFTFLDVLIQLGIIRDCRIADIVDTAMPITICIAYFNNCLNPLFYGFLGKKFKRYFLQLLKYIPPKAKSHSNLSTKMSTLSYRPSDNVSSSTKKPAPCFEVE", "assay": "Inositol phosphate (IP1) production (Example 4, top panel)", "assay_type": "cell-based", "conditions": "HEK293FT cells; antagonist 10 μM; 100 nM AngII; no CCR2; FIG. 6 top"}, "AT1R-Rluc8 [5]": {"target": "T2, AT1R-Rluc8", "assay_type": "cell-based", "conditions": "HEK293FT cells; antagonist 10 μM; 100 nM AngII; FIG. 5 middle"}, "AT1R-Rluc8 and CCR2 [6]": {"target": "T3, AT1R-Rluc8 and CCR2 (Homo sapiens, UniProt P30556+P41597)", "T3 construct": "expressed in transfected cells; host or cells: HEK293FT", "T3 sequence (P41597 whole entry, one chain of several)": "as the sequence (P41597 whole entry, one chain of several) above", "assay": "Inositol phosphate (IP1) production (Example 4, bottom panel)", "assay_type": "cell-based", "conditions": "HEK293FT cells, FIG. 6 bottom; for AngII-induced IP1 production, cells co-expressing AT1R-Rluc8 and CCR2 / MCP-1-induced IP1 production, cells co-expressing AT1R-Rluc8 and CCR2: antagonist 10 μM; for AngII-induced IP1 production, cells co-expressing AT1R-Rluc8 and CCR2: 100 nM AngII; for MCP-1-induced IP1 production, cells co-expressing AT1R-Rluc8 and CCR2: 100 nM MCP-1", "description": "as §3"}, "AT1R-Rluc8 [7]": {"target": "T2, AT1R-Rluc8", "assay": "Inositol phosphate (IP1) production (Example 6, top panel)", "assay_type": "cell-based", "conditions": "HEK293FT cells; antagonist 10 μM; 100 nM AngII; no CCR2; FIG. 8 top", "procedure": "(§1) Data are shown as induced IP1 (arbitrary units).\n(§2) The cells were then lysed by adding the HTRF® assay reagents, the Terbium Cryptate-labeled anti-IP1 antibody, and the d2-labeled IP1 analog, previously diluted in the lysis buffer containing 1% Triton X-100. The assay was incubated for 1 hour at room temperature, and Terbium Cryptate fluorescence and the time resolved FRET signal were measured 50 μs after excitation at 340, 620, and 665 nm, respectively, using the EnVision 2102 multilabel plate reader (PerkinElmer). Data are shown as induced IP1 (arbitrary units). The IP-One Tb kit is a competition assay and so induction of IP1 results in a decrease in absolute assay signal. Therefore, the induced IP1 (arbitrary units) is generated by subtracting the ligand-induced assay signal from the basal assay signal."}, "AT1R-Rluc8 and CCR2 [8]": {"target": "T3, AT1R-Rluc8 and CCR2", "assay": "Inositol phosphate (IP1) production (Example 6, bottom panel)", "assay_type": "cell-based", "conditions": "HEK293FT cells, FIG. 8 bottom", "procedure": "as §1, §2"}, "diabetic nephropathy": {"test_system": "diabetic nephropathy", "conditions": "patients; Lewis (1993); cited from earlier work"}}, "note": "Entries after “also recorded” stand apart in the source; their conditions may differ."}
{"molecule": "3-oxygermylpropionic acid polymer [Propagermanium]", "values": [{"measurement": "in vitro chemotactic migration of monocytes by MCP-1", "setting": "monocytes", "result": "specifically inhibit; also recorded: inhibits"}, {"measurement": "MCP-1 binding", "setting": "MCP-1", "result": "does not inhibit"}, {"measurement": "inflammation in mouse models of multiple sclerosis, renal ischemia-reperfusion injury, ureter obstruction, diabetic nephropathy and a rat model of arthritis", "setting": "[1]", "result": "suppress inflammation"}]}
{"molecule": "CCO[C@H]1CN(C2CCC(O)(c3ccc4c(c3)OCO4)CC2)C[C@@H]1NC(=O)CNC(=O)c1cccc(C(F)(F)F)c1", "note": "(stereo partly drawn) [INCB3344]", "values": [{"measurement": "inflammation in mouse models of multiple sclerosis, renal ischemia-reperfusion injury, ureter obstruction, diabetic nephropathy and a rat model of arthritis", "setting": "[1]", "result": "suppress inflammation"}]}
{"molecule": "CCCCC1=NC2(CCCC2)C(=O)N1Cc1ccc(-c2ccccc2-c2nn[nH]n2)cc1", "note": "[Irbesartan, 2-butyl-3-({4-[2-(2H-1,2,3,4-tetrazol-5-yl)phenyl]phenyl}methyl)-1,3-diazaspiro[4.4]non-1-en-4-one]", "values": [{"measurement": "AngII-induced BRET, CCR2-Rluc8, β-arrestin2-Venus and HA-tagged AT1R", "setting": "[2]; antagonist 10 μM, 100 nM AngII", "result": "partially blocked"}, {"measurement": "MCP-1-induced BRET, CCR2-Rluc8, β-arrestin2-Venus and HA-tagged AT1R", "setting": "[2]; antagonist 10 μM", "result": "not the MCP-1-promoted BRET signal"}, {"measurement": "AngII-induced BRET, AT1R-Rluc8, β-arrestin2-Venus and untagged CCR2", "setting": "[3]; antagonist 10 μM, 100 nM AngII", "result": "substantially block"}, {"measurement": "MCP-1-induced BRET, AT1R-Rluc8, β-arrestin2-Venus and untagged CCR2", "setting": "[3]; antagonist 10 μM", "result": "not the MCP-1-induced BRET"}, {"measurement": "AngII-induced IP1 production, cells expressing AT1R-Rluc8", "setting": "AT1R-Rluc8 [4]", "result": "substantially abolished"}, {"measurement": "AngII-induced BRET response, AT1R-Rluc8 and β-arrestin2-Venus", "setting": "AT1R-Rluc8 [5]", "result": "substantially blocked"}, {"measurement": "AngII-induced IP1 production, cells co-expressing AT1R-Rluc8 and CCR2", "setting": "AT1R-Rluc8 and CCR2 [6]", "result": "substantially inhibiting"}, {"measurement": "MCP-1-induced IP1 production, cells co-expressing AT1R-Rluc8 and CCR2", "setting": "AT1R-Rluc8 and CCR2 [6]", "result": "partially reduced"}]}
{"molecule": "Cc1ccc2c(c1)C1(CCN(CCc3nc(-c4ccccc4)oc3C)CC1)OC(=O)N2", "note": "[RS504393]", "values": [{"measurement": "MCP-1-induced BRET, CCR2-Rluc8, β-arrestin2-Venus and HA-tagged AT1R", "setting": "[2]; antagonist 10 μM", "result": "substantially inhibited"}, {"measurement": "BRET response with combined treatment with MCP-1 and AngII, CCR2-Rluc8 and HA-tagged AT1R", "setting": "[2]; antagonist(s) 10 μM, 100 nM MCP-1 and AngII", "result": "a substantial BRET signal remained"}, {"measurement": "AngII-induced IP1 production, cells expressing AT1R-Rluc8", "setting": "AT1R-Rluc8 [7]", "result": "not RS504393, abolished"}, {"measurement": "MCP-1-induced BRET, AT1R-Rluc8, β-arrestin2-Venus and untagged CCR2", "setting": "[3]; antagonist 10 μM", "result": "partially blocked"}, {"measurement": "AngII-induced IP1 production, cells expressing AT1R-Rluc8", "setting": "AT1R-Rluc8 [4]", "result": "not RS504393, substantially abolished"}, {"measurement": "AngII-induced BRET response, AT1R-Rluc8 and β-arrestin2-Venus", "setting": "AT1R-Rluc8 [5]", "result": "not RS504393 substantially blocked"}, {"measurement": "inflammation in mouse models of multiple sclerosis, renal ischemia-reperfusion injury, ureter obstruction, diabetic nephropathy and a rat model of arthritis", "setting": "[1]", "result": "suppress inflammation"}, {"measurement": "AngII-induced IP1 production, cells co-expressing AT1R-Rluc8 and CCR2", "setting": "AT1R-Rluc8 and CCR2 [6]", "result": "little effect"}, {"measurement": "MCP-1-induced IP1 production, cells co-expressing AT1R-Rluc8 and CCR2", "setting": "AT1R-Rluc8 and CCR2 [6]", "result": "substantially and selectively inhibited"}, {"measurement": "AngII-induced IP1 production, cells co-expressing AT1R-Rluc8 and CCR2", "setting": "AT1R-Rluc8 and CCR2 [8]; antagonist 10 μM, 100 nM AngII", "result": "little effect"}, {"measurement": "MCP-1-induced IP1 response, cells co-expressing AT1R-Rluc8 and CCR2", "setting": "AT1R-Rluc8 and CCR2 [8]; antagonist 10 μM, 100 nM MCP-1", "result": "substantially and selectively inhibited"}]}
{"molecule": "C[C@H](CS)C(=O)N1CCC[C@H]1C(=O)O", "note": "[captopril]", "values": [{"measurement": "progression of diabetic nephropathy", "setting": "diabetic nephropathy", "result": "did not halt the progression of diabetic nephropathy in the vast majority of patients"}]}
{"molecule": "MCP-1: Monocyte chemotactic protein-1, also known as monocyte chemoattractant protein-1", "values": [{"measurement": "agonist-induced BRET, AT1R-Rluc8, β-arrestin2-Venus and untagged CCR2", "setting": "[3]; 100 nM agonist", "result": "induced BRET increases to different degrees"}, {"measurement": "agonist-stimulated IP1 response, cells co-expressing AT1R-Rluc8 and CCR2", "setting": "AT1R-Rluc8 and CCR2 [6]; 100 nM agonist", "result": "seems to stimulate a partial IP1 response"}, {"measurement": "agonist-stimulated IP1 response, cells co-expressing AT1R-Rluc8 and CCR2", "setting": "AT1R-Rluc8 and CCR2 [8]; 100 nM agonist", "result": "seems to stimulate a partial IP1 response"}]}
